Reference: patent publication US4130709A, “Pleuromutilin glycoside derivatives” (Eli Lilly and Company, priority 1977, dated 1978)
In brackets after ≈: the same amount, converted by molar mass. Like-named read-outs stand apart in the source and are kept apart here.

Key:
Pseudomonas sp. (fish) = test: in vitro activity against Pseudomonas sp. (fish); type: cell-based
Source text: P. multocida, for example, is a causative agent of respiratory infection in cattle, poultry and swine. P. hemolytica is a major cause of respiratory disease in cattle. The activity of representative compounds of this invention (R^2 =H in group tested) against P. multocida and the Pseudomonas sp. is summarized in Table VI.

Spiroplasma citri = test: in vitro inhibition of Spiroplasma citri measured by a color reaction; type: cell-based; set-up: key to Activity (color reaction): Red (R) includes complete inhibition; red-orange (RO) indicates partial inhibition; yellow (Y) indicates no inhibition
Protocol: In another important aspect, the compounds of this invention are active against Spiroplasmas. Spiroplasma citri is the causative agent of citrus-stubborn disease; another Spiroplasma, corn-stunt Spiroplasma, affects the growth of corn. Table VII summarizes the in vitro activity of representative compounds of the present invention (R^2 =H in this group) against Spiroplasma citri. In this test, inhibition of S. citri is measured by a color reaction. Red (R) includes complete inhibition; red-orange (RO) indicates partial inhibition; and yellow (Y) indicates no inhibition.

Bacteroides fragilis 111 = test: standard agar-dilution test, anaerobic bacteria; type: cell-based
[1] = tested on: Bacteroides fragilis 1936B; test: standard agar-dilution test, anaerobic bacteria; type: cell-based
Bacteroides corrodens = test: standard agar-dilution test, anaerobic bacteria; type: cell-based; details: Eikenella corrodens
Fusobacterium symbiosum = test: standard agar-dilution test, anaerobic bacteria; type: cell-based
Clostridium perfringens = test: microbe, parasite or virus in culture; type: cell-based; details: 24 h
[2] = tested on: Bacteroides melaninogenicus 1856/28; test: standard agar-dilution test, anaerobic bacteria; type: cell-based; details: Prevotella intermedia
[3] = tested on: Peptococcus asaccharolyticus; test: standard agar-dilution test, anaerobic bacteria; type: cell-based; details: Peptoniphilus asaccharolyticus, 24-hour incubation
[4] = tested on: Peptostreptococcus anaerobius; test: standard agar-dilution test, anaerobic bacteria; type: cell-based; details: 24-hour incubation
Peptococcus prevoti = test: standard agar-dilution test, anaerobic bacteria; type: cell-based
[5] = tested on: Pasteurella multocida (turkey); test: in vitro activity against Pasteurella multocida (turkey); type: cell-based
Source text: (§1) The activity of representative compounds of this invention (R^2 =H in group tested) against P. multocida and the Pseudomonas sp. is summarized in Table VI.

[6] = tested on: Bacteroides thetaiotaomicron; test: standard agar-dilution test, anaerobic bacteria; type: cell-based; details: 24-hour incubation
Protocol: (§2) Table IV summarizes the activity of typical compounds of this invention, as determined by the standard agar-dilution test.
(§3) *Endpoint read after 24-hour incubation

Clostridium septicum = test: standard agar-dilution test, anaerobic bacteria; type: cell-based; details: 24-hour incubation
Protocol: as §2, §3

Eubacterium aerofaciens = test: standard agar-dilution test, anaerobic bacteria; type: cell-based; details: Collinsella aerofaciens
[7] = tested on: Staphylococcus aureus (H-Heatley) NRRL B-314; test: in vitro turbidometric assay (Autoturb Microbiological Assay System) against Staphylococcus aureus; type: cell-based; details: nutrient broth pH 7, approximately 4 hours at 37° C., A-40104 factor A as standard
Protocol: The compounds are conveniently tested against a typical gram-positive organism, Staphylococcus aureus, using a turbidometric assay on a semi-automated system (Autoturb Microbiological Assay System, Elanco) described by N. R. Kuzel and F. W. Kavanagh in J. Pharmaceut. Sci, 60 (5), 764 and 767 (1971). In testing these compounds, the following parameters were used: Staphylococcus aureus (H-Heatley) NRRL B-314 in a nutrient broth medium (pH 7), incubated for approximately 4 hours at 37° C. Test samples and A-40104 factor A, which is used as a standard, were dissolved in water. The standard was presented to the Autoturb carrousel at concentrations of 1.25, 2.50, 3.75, 5.00 and 6.25 mcg/ml. Test compounds were diluted to contain approximately 2.5 to 5.0 mcg of activity per ml, as presented to the carrousel. The units of activity of some of the typical compounds of this invention (R^2 =H in group tested) in this in vitro assay are summarized in Table I

[8] = tested on: Fusobacterium necrophorum; test: standard agar-dilution test, anaerobic bacteria; type: cell-based
[9] = tested on: Bacteroides melaninogenicus 2736; test: standard agar-dilution test, anaerobic bacteria; type: cell-based
[10] = tested on: Peptostreptococcus intermedius; test: standard agar-dilution test, anaerobic bacteria; type: cell-based
Bacteroides vulgatis = test: standard agar-dilution test, anaerobic bacteria; type: cell-based
[11] = tested on: Bacteroides fragilis 1877; test: standard agar-dilution test, anaerobic bacteria; type: cell-based
[12] = tested on: Pasteurella multocida (bovine); test: in vitro activity against Pasteurella multocida (bovine); type: cell-based
Source text: as §1

Actinomyces israelii = test: standard agar-dilution test, anaerobic bacteria; type: cell-based; details: 24-hour incubation
Mycoplasma hyopneumoniae = test: in vitro broth-dilution studies, mycoplasma; type: cell-based; details: Mesomycoplasma hyopneumoniae
Source text: (§4) The minimal inhibitory concentrations (MIC's) of a number of typical compounds of the present invention (R^2 =H in group tested) against various mycoplasma species, as determined by in vitro broth-dilution studies, are summarized in Table V.

Mycoplasma synoviae = test: in vitro broth-dilution studies, mycoplasma; type: cell-based; details: Mycoplasmopsis synoviae
Source text: as §4

Mycoplasma hyorhinis = test: in vitro broth-dilution studies, mycoplasma; type: cell-based
Source text: as §4

Mycoplasma gallisepticum = test: in vitro broth-dilution studies, mycoplasma; type: cell-based; details: Mycoplasmoides gallisepticum
Source text: as §4

[13] = toxicity (LD50) on intraperitoneal injection in mice; details: mouse, in vivo, ip; intraperitoneal injection, mice
Pasteurella hemolytica = test: in vitro tests against Pasteurella hemolytica; type: cell-based
Treponema hyodysenteriae = test: in vitro agar plate test against Treponema hyodysenteriae; details: four days anaerobic
[14] = Bacteroides fragilis 111, 24-hour incubation, read-out: MIC
[15] = Bacteroides fragilis 1936B, 24-hour incubation, read-out: MIC
[16] = Bacteroides corrodens, 24-hour incubation, read-out: MIC
[17] = Fusobacterium symbiosum, 24-hour incubation, read-out: MIC
[18] = Bacteroides melaninogenicus 1856/28, 24-hour incubation, read-out: MIC
[19] = Peptococcus prevoti, 24-hour incubation, read-out: MIC
[20] = Eubacterium aerofaciens, 24-hour incubation, read-out: MIC
[21] = 24-hour incubation, read-out: MIC
[22] = Bacteroides melaninogenicus 2736, 24-hour incubation, read-out: MIC
[23] = Peptostreptococcus intermedius, 24-hour incubation, read-out: MIC
[24] = Bacteroides vulgatis, 24-hour incubation, read-out: MIC
[25] = Bacteroides fragilis 1877, 24-hour incubation, read-out: MIC
[26] = Bacteroides fragilis, 111, 24 h
[27] = Bacteroides fragilis, 1936B, 24 h
[28] = Bacteroides fragilis, 1877, 24 h

| Structure (SMILES) | MIC (Pseudomonas sp. (fish)) [µg/mL] | Activity (color reaction) (Spiroplasma citri; 0.01 ppm) | Activity (color reaction) (Spiroplasma citri; 0.05 ppm) | Activity (color reaction) (Spiroplasma citri; 0.1 ppm) | Activity (color reaction) (Spiroplasma citri; 1.0 ppm) | MIC (Bacteroides fragilis 111; [14]) [µg/mL] | MIC [1, 15] [µg/mL] | MIC (Bacteroides corrodens; [16]) [µg/mL] | MIC (Clostridium perfringens) [µg/mL] | MIC [3] [µg/mL] | MIC [4] [µg/mL] | MIC (Peptococcus prevoti; [19]) [µg/mL] | MIC [6] [µg/mL] | MIC (Clostridium septicum) [µg/mL] | Units of Activity [7] [µg/mg] | MIC [8, 21] [µg/mL] | MIC (Actinomyces israelii) [µg/mL] | MIC (Mycoplasma synoviae) [µg/mL] | MIC (Mycoplasma hyorhinis) [µg/mL] | MIC (Mycoplasma gallisepticum) [µg/mL] | also measured |
| --- | --- | --- | --- | --- | --- | --- | --- | --- | --- | --- | --- | --- | --- | --- | --- | --- | --- | --- | --- | --- | --- |
| C=C[C@]1(C)C[C@@H](OC(=O)CS[C@@H]2OC[C@@H](OC(C)=O)[C@H](OC(C)=O)[C@H]2OC(C)=O)[C@]2(C)[C@H](C)CC[C@]3(CCC(=O)[C@H]32)[C@@H](C)[C@@H]1O [Compound 1, 14-deoxy-14-[(2,3,4-tri-O-acetyl-β-D-xylopyranosyl)thioacetoxy]mutilin] | 12.5 (≈ 19.1 µM) | Y,RO | --,R | R,R | R,R | 8 (≈ 12.3 µM) | 8 (≈ 12.3 µM) | 4 (≈ 6.13 µM) | 16 (≈ 24.5 µM) | ≤ 0.5 | ≤ 0.5 | ≤ 0.5 | 8 (≈ 12.3 µM) | ≤ 0.5 | 568 to 579 | ≤ 0.5 | ≤ 0.5 |  |  |  | MIC (Fusobacterium symbiosum; [17]): 4 µg/mL (≈ 6.13 µM); MIC [2, 18]: > 128 µg/mL; MIC [5]: 50 µg/mL (≈ 76.6 µM); MIC (Eubacterium aerofaciens; [20]): 16 µg/mL (≈ 24.5 µM); MIC [9, 22]: 2 µg/mL (≈ 3.06 µM); MIC [10, 23]: ≤ 0.5 µg/mL; MIC (Bacteroides vulgatis; [24]): 4 µg/mL (≈ 6.13 µM); MIC [11, 25]: 4 µg/mL (≈ 6.13 µM); MIC [12]: < 50 µg/mL |
| C=C[C@]1(C)C[C@@H](OC(=O)CO[C@H]2O[C@H](COC(C)=O)[C@H](OC(C)=O)[C@H](OC(C)=O)C2=NO)[C@]2(C)[C@H](C)CC[C@]3(CCC(=O)[C@H]32)[C@@H](C)[C@@H]1O [Compound 9, 14-deoxy-14-[(2-deoxy-2-(hydroxyimino)-3,4,6-tri-O-acetyl-α-D-galactopyranosyl)oxyacetoxy]mutilin] |  |  |  |  |  |  |  |  | > 128 | 16 (≈ 23.5 µM) | 2 (≈ 2.94 µM) | 16 (≈ 23.5 µM) | > 128 | > 128 | 53 to 54 | 64 (≈ 94.2 µM) | 1 (≈ 1.47 µM) | < 0.78 | 1.56 (≈ 2.29 µM) | < 0.78 | MIC (Bacteroides fragilis 111; [26]): > 128 µg/mL; MIC [1, 27]: > 128 µg/mL; MIC (Bacteroides corrodens; 24 h): > 128 µg/mL; MIC (Fusobacterium symbiosum; Fusobacterium, 24 h): > 128 µg/mL; MIC (Mycoplasma hyopneumoniae): 0.78 µg/mL (≈ 1.15 µM); MIC ([2]; 1856/28, 24 h): > 128 µg/mL; MIC (Eubacterium aerofaciens; 24 h): > 128 µg/mL; MIC ([9]; 2736, 24 h): > 128 µg/mL; MIC ([10]; Peptostreptococcus, 24 h): > 128 µg/mL; MIC (Bacteroides vulgatis; Bacteroides, 24 h): > 128 µg/mL; MIC [11, 28]: > 128 µg/mL |
| CC[C@]1(C)C[C@@H](OC(=O)CO[C@H]2O[C@H](COC(C)=O)[C@@H](OC(C)=O)[C@H](OC(C)=O)C2=NO)[C@]2(C)[C@H](C)CC[C@]3(CCC(=O)[C@H]32)[C@@H](C)[C@@H]1O [Compound 8, 14-deoxy-14-[(2-deoxy-2-(hydroxyimino)-3,4,6-tri-O-acetyl-α-D-glucopyranosyl)oxyacetoxy]-19,20-dihydromutilin] |  |  |  | Y | R |  |  |  | > 128 | 8 (≈ 11.7 µM) | 64 (≈ 93.9 µM) |  | > 128 | > 128 |  |  | 8 (≈ 11.7 µM) | 6.25 (≈ 9.17 µM) | 6.25 (≈ 9.17 µM) | 3.12 (≈ 4.58 µM) | LD50 [13]: > 300 mg/kg; MIC (Bacteroides fragilis 111; [26]): > 128 µg/mL; MIC [1, 27]: > 128 µg/mL; MIC (Bacteroides corrodens; 24 h): > 128 µg/mL; MIC (Fusobacterium symbiosum; Fusobacterium, 24 h): > 128 µg/mL; MIC ([2]; 1856/28, 24 h): > 128 µg/mL; MIC (Peptococcus prevoti; 24 h): > 128 µg/mL; MIC (Eubacterium aerofaciens; 24 h): > 128 µg/mL; MIC ([8]; 24 h): > 128 µg/mL; MIC ([9]; 2736, 24 h): > 128 µg/mL; MIC ([10]; Peptostreptococcus, 24 h): > 128 µg/mL; MIC (Bacteroides vulgatis; Bacteroides, 24 h): > 128 µg/mL; MIC [11, 28]: > 128 µg/mL |
| CC[C@]1(C)C[C@@H](OC(=O)CS[C@@H]2OC[C@@H](O)[C@H](O)[C@H]2O)[C@]2(C)[C@H](C)CC[C@]3(CCC(=O)[C@H]32)[C@@H](C)[C@@H]1O |  |  |  |  |  |  |  |  |  |  |  |  |  |  |  |  |  |  |  |  | LD50 [13]: > 1500 mg/kg; MIC (Spiroplasma citri; Spiroplasma citri, in vitro, read-out: inhibits the growth of S. citri at levels as low as): ≥ 0.01 µg/mL; MIC (Pasteurella hemolytica): 10.4 µg/mL (≈ 19.7 µM); inhibition of growth (Treponema hyodysenteriae; 0.5 mcg/ml agar concentration): inhibited growth; inhibition of growth (Treponema hyodysenteriae; 5.0 mcg/ml agar concentration): inhibited growth; inhibition of growth (Treponema hyodysenteriae; 50 mcg/ml agar concentration): inhibited growth |
| CC[C@]1(C)C[C@@H](OC(=O)CS[C@@H]2OC[C@@H](OC(C)=O)[C@H](OC(C)=O)[C@H]2OC(C)=O)[C@]2(C)[C@H](C)CC[C@]3(CCC(=O)[C@H]32)[C@@H](C)[C@@H]1O [Compound 6, 14-deoxy-14-[(2,3,4-tri-O-acetyl-β-D-xylopyranosyl)thioacetoxy]-19,20-dihydromutilin] | 12.5 (≈ 19.1 µM) | RO | R | R | R | 2 (≈ 3.05 µM) | 8 (≈ 12.2 µM) | 4 (≈ 6.11 µM) | > 128 | 4 (≈ 6.11 µM) | ≤ 0.5 | 2 (≈ 3.05 µM) | 8 (≈ 12.2 µM) | 1 (≈ 1.53 µM) | 746 to 883 | 4 (≈ 6.11 µM) | 2 (≈ 3.05 µM) | 0.78 (≈ 1.19 µM) | 0.39 (≈ 0.596 µM) | 0.78 (≈ 1.19 µM) | MIC (Fusobacterium symbiosum; [17]): 4 µg/mL (≈ 6.11 µM); MIC (Mycoplasma hyopneumoniae): ≤ 0.15 µg/mL; MIC [2, 18]: 2 µg/mL (≈ 3.05 µM); MIC [5]: < 50 µg/mL; MIC (Eubacterium aerofaciens; [20]): 16 µg/mL (≈ 24.4 µM); MIC [9, 22]: 4 µg/mL (≈ 6.11 µM); MIC [10, 23]: 4 µg/mL (≈ 6.11 µM); MIC (Bacteroides vulgatis; [24]): 4 µg/mL (≈ 6.11 µM); MIC [11, 25]: 2 µg/mL (≈ 3.05 µM); MIC [12]: < 50 µg/mL |
